Assay results from paper PMC11858624, “Antioxidant and Tyrosinase-Inhibitory Activities and Biological Bioactivities of Flavonoid Derivatives from Quercus mongolica Pollen” (Molecules, 2025).

Experiments:
[1] = DPPH radical scavenging antioxidant assay; conditions: for IC50: DPPH radical scavenging, 10 min incubation, PC = positive control ascorbic acid; for DPPH scavenging activity: at a concentration of 100 µM
Experimental: The antioxidant properties of compounds 1–18 isolated from the pollen of Q. mongolica were assessed through DPPH assay.
The radical scavenging activity of DPPH (Sigma-Aldrich) was hired for the antioxidant activity. For each assay, 10 mM of each compound isolated from the pollen of Q. mongolica (1 µL) was evaluated, followed by 49 µL of MeOH in each well. Subsequently, 50 µL of 0.3 mM DPPH solution (Sigma-Aldrich) was added. The final concentration was tested to 0.1 mM. The mixture was incubated for 10 min, and antioxidant activity was evaluated by measuring UV at 550 nm using a Dynatech MR 500 plate reader. […]

mushroom tyrosinase = mushroom tyrosinase (Agaricus bisporus, UniProt C7FF04); assay: Tyrosinase inhibition assay (dopachrome formation, absorbance at 490 nm); format: biochemical; conditions: at a concentration of 100 µM
Experimental: Tyrosinase is a crucial enzyme in melanin synthesis, participating as an oxidase in the initial steps of melanin formation.
Evaluation of tyrosinase-inhibitory activity was conducted using mushroom tyrosinase (Sigma-Aldrich). For each test, 10 mM of each compound isolated from the pollen of Q. mongolica (1 µL) was evaluated. A 50 µL portion of 1 mM tyrosine (Sigma-Aldrich) dissolved in phosphate-buffered saline was introduced into each well, followed by a 5 min incubation period. Mushroom tyrosinase was prepared to a final concentration of 0.1 U/mL in phosphate-buffered saline, and 49 µL of the prepared enzyme solution was added to the wells, resulting in a compound concentration of 0.1 mM. The mixture underwent a 15 min incubation, after which the production of dopachrome was evaluated by recording the absorbance at 490 nm using a Dynatech MR 500 plate reader (Dynatech, Charlottesville, VA, USA). […] The percentage inhibition for each sample was determined at concentrations of […]. The IC50 value was calculated as the concentration of the compound required to achieve 50% inhibition of tyrosinase activity.

Chain of mushroom tyrosinase (C7FF04 1-392): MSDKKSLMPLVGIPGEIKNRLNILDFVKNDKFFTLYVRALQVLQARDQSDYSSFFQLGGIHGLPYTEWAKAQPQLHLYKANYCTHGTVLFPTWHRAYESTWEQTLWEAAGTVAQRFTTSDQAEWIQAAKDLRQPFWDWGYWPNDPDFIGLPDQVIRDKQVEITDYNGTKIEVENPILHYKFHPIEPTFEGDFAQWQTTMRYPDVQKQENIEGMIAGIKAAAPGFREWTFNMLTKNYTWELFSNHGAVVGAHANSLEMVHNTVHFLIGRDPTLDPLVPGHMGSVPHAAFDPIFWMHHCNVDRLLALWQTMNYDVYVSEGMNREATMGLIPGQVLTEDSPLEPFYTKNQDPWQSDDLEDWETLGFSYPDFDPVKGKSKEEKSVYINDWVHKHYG
Chain of mushroom tyrosinase (G1K3P4 1-150 partner): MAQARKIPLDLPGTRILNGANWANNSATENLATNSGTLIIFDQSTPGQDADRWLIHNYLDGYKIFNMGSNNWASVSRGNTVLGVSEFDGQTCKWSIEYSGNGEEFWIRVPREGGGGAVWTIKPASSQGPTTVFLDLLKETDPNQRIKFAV

Row | Compound | IC50 [1] [µM] | DPPH scavenging activity [1] | inhibition at 100 µM (mushroom tyrosinase) [%]
1 | O=C1O[C@H]([C@@H](O)CO)C(O)=C1O [ascorbic acid, reference compound] | 28.5 |  | 
2 | COc1c(O)cc(O)c2c(=O)c(OC3OC(CO)C(O)C(O)C3O)c(-c3ccc(O)cc3)oc12 (stereo not shown) [Compound 10, 8-methoxykaempferol 3-glucoside] | > 100 |  | 
3 | COc1cc(-c2oc3cc(O)cc(O)c3c(=O)c2O)ccc1O [Compound 13, isorhamnetin] | 25.5 | over 90% | 
4 | O=C1C[C@@H](c2ccc(O)cc2)Oc2cc(O)cc(O)c21 [Compound 17, naringenin] | > 100 |  | 
5 | O=c1cc(-c2ccc(O)cc2)oc2cc(O)cc(O)c12 [Compound 15, apigenin] | > 100 |  | 
6 | COc1cc(-c2oc3cc(O)cc(O)c3c(=O)c2OC2OC(COC3OCC(O)C(O)C3O)C(O)C(O)C2O)ccc1O [Compound 6, Isorhamnetin 3-O-β-D-xylopyranosyl (1→6)-β-D-glucopyranoside] | > 100 |  | 
7 | COc1ccc(-c2coc3cc4c(c(O)c3c2=O)C=CC(C)(C)O4)cc1 [Compound 18, 4′-methylalpinumisoflavone] | > 100 |  | 
8 | O=c1cc(-c2ccc(O)c(O)c2)oc2cc(O)cc(O)c12 [Compound 16, luteolin] | 9.7 | over 90% | > 50
9 | O=c1c(O[C@@H]2O[C@H](CO)[C@@H](O)[C@H](O)[C@H]2O)c(-c2ccc(O)c(O)c2)oc2cc(O)cc(O)c12 [Compound 8, isoquercetin] | 28.5 | over 90% | 
10 | O=c1c(O[C@@H]2O[C@H](CO)[C@@H](O)[C@H](O)[C@H]2O)c(-c2ccc(O)cc2)oc2cc(O)cc(O)c12 [Compound 7, astragalin] | > 100 |  | 
11 | COc1cc(-c2oc3c(OC)c(O)cc(O)c3c(=O)c2OC2OC(CO)C(O)C(O)C2O)ccc1O (stereo not shown) [Compound 11, limocitrin 3-glucoside] | > 100 |  | 
12 | O=c1c(O)c(-c2ccc(O)cc2)oc2cc(O)cc(O)c12 [Compound 12, kaempferol] | 42.4 | over 90% | > 70
13 | O=c1c(OC2OC(CO)C(O)C(O)C2OC2OCC(O)C(O)C2O)c(-c2ccc(O)cc2)oc2cc(O)cc(O)c12 (stereo not shown) [Compound 4, leucoside] | > 100 |  | 
14 | O=c1c(OC2OC(CO)C(O)C(O)C2OC2OCC(O)C(O)C2O)c(-c2ccc(O)c(O)c2)oc2cc(O)cc(O)c12 (stereo not shown) [Compound 5, quercetin 3-sambubioside] | 18.4 | over 90% | 
15 | COc1cc(-c2oc3cc(O)cc(O)c3c(=O)c2OC2OC(CO)C(O)C(O)C2OC2OC(C)C(O)C(O)C2O)ccc1O (stereo not shown) [Compound 3, calendoflavoside] | > 100 |  | 
16 | O=c1c(OC2OC(CO)C(O)C(O)C2OC2OC(CO)C(O)C(O)C2O)c(-c2ccc(O)c(O)c2)oc2cc(O)cc(O)c12 (stereo not shown) [Compound 2, quercetin 3-sophoroside] | 34.3 | over 90% | 
17 | COc1cc(-c2oc3cc(O)cc(O)c3c(=O)c2OC2OC(COC3OCC(O)C(O)C3O)C(O)C(O)C2OC(C)=O)ccc1O (stereo not shown) [Compound 1, mongolinodoside A] | > 100 |  | 
18 | COc1cc(-c2oc3c(OC)c(O)cc(O)c3c(=O)c2O)ccc1O [Compound 14, limocitrin] | 52.3 | over 90% | 
19 | COc1cc(-c2oc3cc(O)cc(O)c3c(=O)c2OC2OC(CO)C(O)C(O)C2O)ccc1O (stereo not shown) [Compound 9, isorhamnetin 3-glucoside] | > 100 |  | 
